Source: US9751837B2, “Kinase inhibitors” (RESPIVERT LIMITED, priority 2014, dated 2017)
Converted amounts (≈) assume the structure as drawn.

Legend:
[1] = Solubility in fasted-state simulated colonic fluid (FaSSCoF) at pH 6.5; type: physicochemical; details: 25 °C, pH 6.5, fassgf or other biorelevant, thermodynamic from solid
Summary of the method: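 Compounds were suspended at up to 2-10 mg/mL in pH 6.5 Tris/maleate FaSSCoF containing a five-bile-acid mixture, phosphatidylcholine, palmitic acid and BSA. After 24 h equilibration at 25° C the suspension was filtered and the filtrate quantified by HPLC peak area against a standard.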

Jurkat cells = assay: Cell cytotoxicity assay (r); type: cell-based, human; details: 24 hours
Method: 1×10^5 Jurkat cells (immortalised human T lymphocytes) are added to the appropriate number of wells of a 96 well plate in 100 μL of media (RPMI supplemented with 10% foetal bovine serum). 1 μL of DMSO control (final concentration 1.0% v/v) or test compound (final concentration 20, 5 or 1 μg/mL) is added to the wells and incubated at 37° C., 5% CO2. After 24 hours, the plate is centrifuged at 1200 rpm for 3 minutes and the supernatant discarded. Cells are then resuspended in 150 μL (final concentration 7.5 μg/mL) of propidium iodide (PI) in PBS and incubated at 37° C., 5% CO2 for 15 minutes. After 15 minutes, cells are analysed by flow cytometry (BD accuri) using the FL3 window. The % viability is calculated as the % of cells that are PI negative in the test wells normalised to the DMSO control.

[2] = pH 6.5 FaSSCoF Solubility (mg/mL) Run 1
[3] = pH 6.5 FaSSCoF Solubility (mg/mL) Run 2

solubility thermodynamic at 24 h [1, 2]	solubility thermodynamic at 24 h [1, 3]	solubility thermodynamic at 24 h ([1]; pH 6.5 FaSSCoF Solubility (mg/mL) Run 3)	solubility thermodynamic at 24 h ([1]; pH 6.5 FaSSCoF Solubility (mg/mL) Run 4)	SMILES	% Viability at 5 μg/mL (Jurkat cells)	% Viability at 20 μg/mL (Jurkat cells)
16 µg/mL (≈ 19.1 µM)	19 µg/mL (≈ 22.6 µM)	–	–	COc1cc(Nc2cc(Oc3ccc(NC(=O)Nc4cc(C(C)(C)C)cc(NS(C)(=O)=O)c4OC)c4ccccc34)ccn2)ccc1C(=O)N(C)CCN1CCN(C)CC1 [17(bh), 4-((4-((4-(3-(5-(tert-Butyl)-2-methoxy-3-(methylsulfonamido)phenyl)ureido)naphthalen-1-yl)oxy)pyridin-2-yl)amino)-2-methoxy-N-methyl-N-(2-(4-methylpiperazin-1-yl)ethyl)benzamide]	–	0.6%
9 µg/mL (≈ 10.7 µM)	9 µg/mL (≈ 10.7 µM)	–	–	COc1c(NC(=O)Nc2ccc(Oc3ccnc(Nc4ccc(C(=O)NCCN5CCN(C)CC5)c(N(C)C)c4)c3)c3ccccc23)cc(C(C)(C)C)cc1NS(C)(=O)=O [17(bq), 4-((4-((4-(3-(5-(tert-Butyl)-2-methoxy-3-(methylsulfonamido)phenyl)ureido)naphthalen-1-yl)oxy)pyridin-2-yl)amino)-2-(dimethylamino)-N-(2-(4-methylpiperazin-1-yl)ethyl)benzamide]	–	2.0%
< 1 µg/mL	< 1 µg/mL	–	–	COc1cc(Nc2nccc(Oc3ccc(NC(=O)Nc4cc(C(C)(C)C)cc(NS(C)(=O)=O)c4OC)c4ccccc34)n2)ccc1C(=O)NCCN1CCN(C)CC1 [17(aq), 4-((4-((4-(3-(5-(tert-Butyl)-2-methoxy-3-(methylsulfonamido)phenyl)ureido)naphthalen-1-yl)oxy)pyrimidin-2-yl)amino)-2-methoxy-N-(2-(4-methylpiperazin-1-yl)ethyl)benzamide]	0.2%	1.3%
47 µg/mL (≈ 57 µM)	49 µg/mL (≈ 59.4 µM)	–	–	COc1cc(Nc2nccc(Oc3ccc(NC(=O)Nc4cc(C(C)(C)C)cc(NS(C)(=O)=O)c4OC)c4ccccc34)n2)ccc1C(=O)NCCC1CCN(C)CC1 [17(an), 4-((4-((4-(3-(5-(tert-butyl)-2-methoxy-3-(methylsulfonamido)phenyl)ureido)naphthalen-1-yl)oxy)pyrimidin-2-yl)amino)-2-methoxy-N-(2-(1-methylpiperidin-4-yl)ethyl)benzamide]	–	1.1%
< 1 µg/mL	< 1 µg/mL	–	–	COc1cc(Nc2nccc(Oc3ccc(NC(=O)Nc4cc(C(C)(C)C)cc(NS(C)(=O)=O)c4OC)c4ccccc34)n2)ccc1C(=O)NCCCN1CCN(C)CC1 [17(ap), 4-((4-((4-(3-(5-(tert-Butyl)-2-methoxy-3-(methylsulfonamido)phenyl)ureido)naphthalen-1-yl)oxy)pyrimidin-2-yl)amino)-2-methoxy-N-(3-(4-methylpiperazin-1-yl)propyl)benzamide]	–	0.6%
13 µg/mL (≈ 15.2 µM)	15 µg/mL (≈ 17.6 µM)	–	–	COc1cc(Nc2cc(Oc3ccc(NC(=O)Nc4cc(C(C)(C)C)cc(NS(C)(=O)=O)c4OC)c4ccccc34)ccn2)ccc1C(=O)NCCN1CCN(C(C)C)CC1 [17(bf), 4-((4-((4-(3-(5-(tert-Butyl)-2-methoxy-3-(methylsulfonamido)phenyl)ureido)naphthalen-1-yl)oxy)pyridin-2-yl)amino)-N-(2-(4-isopropylpiperazin-1-yl)ethyl)-2-methoxybenzamide]	1.5%	0.6%

Further lines, the compound ahead of its results:

SMILES	solubility thermodynamic at 24 h [1, 2]	solubility thermodynamic at 24 h [1, 3]	solubility thermodynamic at 24 h ([1]; pH 6.5 FaSSCoF Solubility (mg/mL) Run 3)	solubility thermodynamic at 24 h ([1]; pH 6.5 FaSSCoF Solubility (mg/mL) Run 4)	% Viability at 5 μg/mL (Jurkat cells)	% Viability at 20 μg/mL (Jurkat cells)
COc1cc(Nc2cc(Oc3ccc(NC(=O)Nc4cc(C(C)(C)C)cc(NS(C)(=O)=O)c4OC)c4ccccc34)ccn2)ccc1C(=O)NC(C)CN1CCN(C)CC1 (stereo not drawn) [17(bl), 4-((4-((4-(3-(5-(tert-Butyl)-2-methoxy-3-(methylsulfonamido)phenyl)ureido)naphthalen-1-yl)oxy)pyridin-2-yl)amino)-2-methoxy-N-(1-(4-methylpiperazin-1-yl)propan-2-yl)benzamide]	16 µg/mL (≈ 19.1 µM)	17 µg/mL (≈ 20.3 µM)	–	–	0.2%	0.5%
COc1cc(Nc2cc(Oc3ccc(NC(=O)Nc4cc(C(C)(C)C)cc(NS(C)(=O)=O)c4OC)c4ccccc34)ccn2)cc(OC)c1C(=O)NCC1CCN(C)CC1 [17(ca), 4-((4-((4-(3-(5-(tert-Butyl)-2-methoxy-3-(methylsulfonamido)phenyl)ureido)naphthalen-1-yl)oxy)pyridin-2-yl)amino)-2,6-dimethoxy-N-((1-methylpiperidin-4-yl)methyl)benzamide]	2 µg/mL (≈ 2.38 µM)	2 µg/mL (≈ 2.38 µM)	–	–	94.0%	–
COc1cc(Nc2cc(Oc3ccc(NC(=O)Nc4cc(C(C)(C)C)cc(NS(C)(=O)=O)c4OC)c4ccccc34)ccn2)ccc1C(=O)NCCOCCO [17(bm), 4-((4-((4-(3-(5-(tert-Butyl)-2-methoxy-3-(methylsulfonamido)phenyl)ureido)naphthalen-1-yl)oxy)pyridin-2-yl)amino)-N-(2-(2-hydroxyethoxy)ethyl)-2-methoxybenzamide]	5 µg/mL (≈ 6.35 µM)	5 µg/mL (≈ 6.35 µM)	–	–	0.2%	0.5%
COc1cc(Nc2cc(Oc3ccc(NC(=O)Nc4cc(C(C)(C)C)cc(NS(C)(=O)=O)c4OC)c4ccccc34)ccn2)ccc1C(=O)NC(CO)(CO)CO [17(cm), 4-((4-((4-(3-(5-(tert-Butyl)-2-methoxy-3-(methylsulfonamido)phenyl)ureido)naphthalen-1-yl)oxy)pyridin-2-yl)amino)-N-(1,3-dihydroxy-2-(hydroxymethyl)propan-2-yl)-2-methoxybenzamide]	8 µg/mL (≈ 9.96 µM)	9 µg/mL (≈ 11.2 µM)	–	–	77.0%	–
COc1cc(Nc2cc(Oc3ccc(NC(=O)Nc4cc(C(C)(C)C)cc(NS(C)(=O)=O)c4OC)c4ccccc34)ccn2)ccc1S(=O)(=O)N(C)CCN1CCN(C)CC1 [17(bb), 4-((4-((4-(3-(5-(tert-Butyl)-2-methoxy-3-(methylsulfonamido)phenyl)ureido)naphthalen-1-yl)oxy)pyridin-2-yl)amino)-2-methoxy-N-methyl-N-(2-(4-methylpiperazin-1-yl)ethyl)benzenesulfonamide]	< 1 µg/mL	< 1 µg/mL	–	–	–	0.2%
COc1cc(Nc2cc(Oc3ccc(NC(=O)Nc4cc(C(C)(C)C)cc(NS(C)(=O)=O)c4OC)c4ccccc34)ccn2)ccc1S(=O)(=O)CC(CO)(CO)CO [Example 45, N-(5-(tert-Butyl)-3-(3-(4-((2-((4-((3-hydroxy-2,2-bis(hydroxymethyl)propyl)sulfonyl)-3-methoxyphenyl)amino)pyridin-4-yl)oxy)naphthalen-1-yl)ureido)-2-methoxyphenyl)-methanesulfonamide]	5 µg/mL (≈ 5.97 µM)	5 µg/mL (≈ 5.97 µM)	–	–	–	9.8%
COc1cc(Nc2cc(Oc3ccc(NC(=O)Nc4cc(C(C)(C)C)cc(NS(C)(=O)=O)c4OC)c4ccccc34)ccn2)cc(OC)c1C(=O)NCCN(C)C [Example 39, 4-((4-((4-(3-(5-(tert-Butyl)-2-methoxy-3-(methylsulfonamido)phenyl)ureido)naphthalen-1-yl)oxy)pyridin-2-yl)amino)-N-(2-(dimethylamino)ethyl)-2,6-dimethoxybenzamide]	222 µg/mL (≈ 278 µM)	247 µg/mL (≈ 309 µM)	73 µg/mL (≈ 91.3 µM)	97 µg/mL (≈ 121 µM)	–	1.5%
COc1cc(Nc2cc(Oc3ccc(NC(=O)Nc4cc(C(C)(C)C)cc(NS(C)(=O)=O)c4OC)c4ccccc34)ccn2)ccc1-c1nn[nH]n1 [Example 24, N-(5-(tert-Butyl)-2-methoxy-3-(3-(4-((2-((3-methoxy-4-(2H-tetrazol-5-yl)phenyl)amino)pyridin-4-yl)oxy)naphthalen-1-yl)ureido)phenyl)methanesulfonamide]	12 µg/mL (≈ 16.6 µM)	10 µg/mL (≈ 13.8 µM)	–	–	–	9.7%
COc1c(NC(=O)Nc2ccc(Oc3ccnc(Nc4ccc(C(=O)NCCCN5CCOCC5)c(O)c4)c3)c3ccccc23)cc(C(C)(C)C)cc1NS(C)(=O)=O [Example 29, 4-((4-((4-(3-(5-(tert-Butyl)-2-methoxy-3-(methylsulfonamido)phenyl)ureido)naphthalen-1-yl)oxy)pyridin-2-yl)amino)-2-hydroxy-N-(3-morpholinopropyl)benzamide]	11 µg/mL (≈ 13.5 µM)	9 µg/mL (≈ 11.1 µM)	–	–	–	2.0%
COc1cc(Nc2cc(Oc3ccc(NC(=O)Nc4cc(C(C)(C)C)cc(NS(C)(=O)=O)c4OC)c4ccccc34)ccn2)ccc1C(=O)NCCN1CCN(C(=O)CC[C@H](N)C(=O)O)CC1 [17(cl), (S)-2-Amino-5-(4-(2-(4-((4-((4-(3-(5-(tert-butyl)-2-methoxy-3-(methylsulfonamido)-phenyl)ureido)naphthalen-1-yl)oxy)pyridin-2-yl)amino)-2-methoxybenzamido)ethyl)piperazin-1-yl)-5-oxopentanoic acid]	9 µg/mL (≈ 9.57 µM)	6 µg/mL (≈ 6.38 µM)	–	–	94.0%	–
